# Counter-ions that a name gives are not always drawn.
# Legend:
# Plutella xylostella = assay: Pesticidal test against Plutella xylostella (cabbage leaf immersion); type: in vivo; settings: 144 h, 3-stage larvae on treated cabbage leaf, 25° C., after 6 days, read-out: pesticidal rate
# Method: (§1) Pesticidal Test Against Plutella xylostella A piece of a cabbage leaf was immersed for 30 seconds in a chemical solution in which a test compound had been diluted at a predetermined concentration, and air-dried, and then put into a 7 cm polyethylene cup having a filter paper laid on the bottom thereof, and 3-stage larvae of Plutella xylostella were released. They were left to stand in a thermostatic chamber at 25° C., and the numbers of the living pests and the dead pests were examined after 6 days. The test was carried out with five larvae per group in two replicates.
# Spodoptera litura = assay: Pesticidal test against Spodoptera litura (cabbage leaf immersion); type: in vivo; settings: 144 h, 2-stage larvae on treated cabbage leaf, 25° C., after 6 days, read-out: pesticidal rate
# Method: as §1, with “Spodoptera litura” for “Plutella xylostella”, “2-stage” for “3-stage”
structure (smiles),measurement,setting,value
"Cc1cc(C(F)(C(F)(F)F)C(F)(F)F)cc(C)c1NC(=O)c1cccc(N(CCC(N)=O)C(=O)c2ccccc2)c1 [1-1, N-(3-amino-3-oxopropyl)-N-(3-(2,6-dimethyl-4-(perfluoropropan-2-yl)phenylcarbamoyl)phenyl)benzamide]",pest or weed control at 100 ppm,Plutella xylostella,≥ 70%
same,pest or weed control at 100 ppm,Spodoptera litura,≥ 70%
"COC(=O)CCN(C(=O)c1ccccc1)c1cccc(C(=O)Nc2c(C)cc(C(F)(C(F)(F)F)C(F)(F)F)cc2C)c1 [5-1, methyl 3-(N-(3-(2,6-dimethyl-4-(perfluoropropan-2-yl)phenylcarbamoyl)phenyl)benzamide)propanoate]",pest or weed control at 100 ppm,Plutella xylostella,≥ 70%
same,pest or weed control at 100 ppm,Spodoptera litura,≥ 70%
"Cc1cc(C(F)(C(F)(F)F)C(F)(F)F)cc(C)c1NC(=O)c1cccc(N(CCC(=O)O)C(=O)c2ccccc2)c1 [5-4, 3-(N-(3-(2,6-dimethyl-4-(perfluoropropan-2-yl)phenylcarbamoyl)phenyl)benzamide)propanoic acid]",pest or weed control at 100 ppm,Plutella xylostella,≥ 70%
"Cc1cc(C(F)(C(F)(F)F)C(F)(F)F)cc(C)c1NC(=O)c1cccc(N(CCC(=O)NCCCC(NC(=O)OC(C)(C)C)C(=O)OC(C)(C)C)C(=O)c2ccccc2)c1 (stereo not drawn) [5-15, tert-butyl 2-(3-(2,6-dimethyl-4-(perfluoropropan-2-yl)phenylcarbamoyl)phenyl)-14,14-dimethyl-1,5,12-trioxo-1-phenyl-13-oxa-2,6,11-triazapentadecane-10-carboxylate]",pest or weed control at 100 ppm,Plutella xylostella,≥ 70%
same,pest or weed control at 100 ppm,Spodoptera litura,≥ 70%
"Cc1cc(C(F)(C(F)(F)F)C(F)(F)F)cc(C)c1NC(=O)c1cccc(N(CCC(=O)OCC(NC(=O)OC(C)(C)C)C(=O)OC(C)(C)C)C(=O)c2ccccc2)c1 (stereo not drawn) [5-22, tert-butyl 2-(tert-butoxycarbonylamino)-3-(3-(N-(3-(2,6-dimethyl-4-(perfluoropropan-2-yl)phenylcarbamoyl)phenyl)benzamide)propanoyloxy)propanoate]",pest or weed control at 100 ppm,Plutella xylostella,≥ 70%
same,pest or weed control at 100 ppm,Spodoptera litura,≥ 70%
"Cc1cc(C(F)(C(F)(F)F)C(F)(F)F)cc(C)c1NC(=O)c1cccc(N(CCC(=O)OCC(N)C(=O)O)C(=O)c2ccccc2)c1 (stereo not drawn) [5-25, 2-amino-3-(3-(N-(3-(2,6-dimethyl-4-(perfluoropropan-2-yl)phenylcarbamoyl)phenyl)benzamide)propanoyloxy)propanoic acid hydrochloric acid salt]",pest or weed control at 100 ppm,Plutella xylostella,≥ 70%
same,pest or weed control at 100 ppm,Spodoptera litura,≥ 70%
"N#Cc1ccc(C(=O)N(CCC(=O)NCC(N)=O)c2cccc(C(=O)Nc3c(Br)cc(C(F)(C(F)(F)F)C(F)(F)F)cc3Br)c2F)cc1 [5-31, 3-(N-(3-(2-amino-2-oxoethylamino)-3-oxopropyl)-4-cyanobenzamide)-N-(2,6-dibromo-4-(perfluoropropan-2-yl)phenyl)-2-fluorobenzamide]",pest or weed control at 100 ppm,Plutella xylostella,≥ 70%
same,pest or weed control at 100 ppm,Spodoptera litura,≥ 70%
"Cc1cc(C(F)(C(F)(F)F)C(F)(F)F)cc(C)c1N(C)C(=O)c1cccc(N(CCO)C(=O)c2ccccc2)c1 [5-35, N-(2,6-dimethyl-4-(perfluoropropan-2-yl)phenyl)-3-(N-(2-hydroxyethyl)benzamide)-N-methylbenzamide]",pest or weed control at 100 ppm,Plutella xylostella,≥ 70%
same,pest or weed control at 100 ppm,Spodoptera litura,≥ 70%
"CSCCN(C(=O)c1ccccc1)c1cccc(C(=O)N(C)c2c(C)cc(C(F)(C(F)(F)F)C(F)(F)F)cc2C)c1 [5-71, N-(2,6-dimethyl-4-(perfluoropropan-2-yl)phenyl)-N-methyl-3-(N-(2-(methylthio)ethyl)benzamide)benzamide]",pest or weed control at 100 ppm,Plutella xylostella,≥ 70%
same,pest or weed control at 100 ppm,Spodoptera litura,≥ 70%
"Cc1cc(C(F)(C(F)(F)F)C(F)(F)F)cc(C)c1N(C)C(=O)c1cccc(N(CC[S+](C)[O-])C(=O)c2ccccc2)c1 (stereo not drawn) [5-72, N-(2,6-dimethyl-4-(perfluoropropan-2-yl)phenyl)-N-methyl-3-(N-(2-(methylsulfinyl)ethyl)benzamide)benzamide]",pest or weed control at 100 ppm,Plutella xylostella,≥ 70%
same,pest or weed control at 100 ppm,Spodoptera litura,≥ 70%
"Cc1cc(C(F)(C(F)(F)F)C(F)(F)F)cc(C)c1N(C)C(=O)c1cccc(N(CCS(C)(=O)=O)C(=O)c2ccccc2)c1 [5-73, N-(2,6-dimethyl-4-(perfluoropropan-2-yl)phenyl)-N-methyl-3-(N-(2-(methylsulfonyl)ethyl)benzamide)benzamide]",pest or weed control at 100 ppm,Plutella xylostella,≥ 70%
same,pest or weed control at 100 ppm,Spodoptera litura,≥ 70%
"Cc1cc(C(F)(C(F)(F)F)C(F)(F)F)cc(C)c1NC(=O)c1cccc(N(CCC(=O)NN)C(=O)c2ccc(C#N)cc2)c1F [5-83, 3-(4-cyano-N-(3-hydrazinyl-3-oxopropyl)benzamide)-N-(2,6-dimethyl-4-(perfluoropropan-2-yl)phenyl)-2-fluorobenzamide]",pest or weed control at 100 ppm,Plutella xylostella,≥ 70%
same,pest or weed control at 100 ppm,Spodoptera litura,≥ 70%
"O=C(O)CCN(C(=O)c1ccccc1)c1cccc(C(=O)Nc2c(I)cc(C(F)(C(F)(F)F)C(F)(F)F)cc2C(F)(F)F)c1 [5-88, 3-(N-(3-(2-iodo-4-(perfluoropropan-2-yl)-6-(trifluoromethyl)phenylcarbamoyl)phenyl)benzamide)propanoic acid]",pest or weed control at 100 ppm,Plutella xylostella,≥ 70%
same,pest or weed control at 100 ppm,Spodoptera litura,≥ 70%
"Cc1cc(C(F)(C(F)(F)F)C(F)(F)F)cc(C)c1NC(=O)c1cccc(N(CC/C(N)=N/O)C(=O)c2ccccc2)c1 [5-91, N-(3-amino-3-(hydroxyimino)propyl)-N-(3-(2,6-dimethyl-4-(perfluoropropan-2-yl)phenylcarbamoyl)phenyl)benzamide]",pest or weed control at 100 ppm,Plutella xylostella,≥ 70%
same,pest or weed control at 100 ppm,Spodoptera litura,≥ 70%
"COC(=O)CN(C(=O)c1ccccc1)c1cccc(C(=O)N(C)c2c(C)cc(C(F)(C(F)(F)F)C(F)(F)F)cc2C)c1 [6-1, methyl 2-(N-(3((2,6-dimethyl-4-(perfluoropropan-2-yl)phenyl)(methyl)carbamoyl)phenyl)benzamide)acetate]",pest or weed control at 100 ppm,Plutella xylostella,≥ 70%
same,pest or weed control at 100 ppm,Spodoptera litura,≥ 70%
"CSCN(C(=O)c1ccccc1)c1cccc(C(=O)N(C)c2c(C)cc(C(F)(C(F)(F)F)C(F)(F)F)cc2C)c1 [6-6, N-(2,6-dimethyl-4-(perfluoropropan-2-yl)phenyl)-N-methyl-3-(N-(methylthiomethyl)benzamide)benzamide]",pest or weed control at 100 ppm,Plutella xylostella,≥ 70%
same,pest or weed control at 100 ppm,Spodoptera litura,≥ 70%
"Cc1cc(C(F)(C(F)(F)F)C(F)(F)F)cc(C)c1N(C)C(=O)c1cccc(N(C[S+](C)[O-])C(=O)c2ccccc2)c1 (stereo not drawn) [6-7, N-(2,6-dimethyl-4-(perfluoropropan-2-yl)phenyl)-N-methyl-3-(N-(methylsulfinylmethyl)benzamide)benzamide]",pest or weed control at 100 ppm,Plutella xylostella,≥ 70%
same,pest or weed control at 100 ppm,Spodoptera litura,≥ 70%
"Cc1cc(C(F)(C(F)(F)F)C(F)(F)F)cc(C)c1N(C)C(=O)c1cccc(N(CS(C)(=O)=O)C(=O)c2ccccc2)c1 [6-8, N-(2,6-dimethyl-4-(perfluoropropan-2-yl)phenyl)-N-methyl-3-(N-(methylsulfonylmethyl)benzamide)benzamide]",pest or weed control at 100 ppm,Plutella xylostella,≥ 70%
same,pest or weed control at 100 ppm,Spodoptera litura,≥ 70%
"Cc1cc(C(F)(C(F)(F)F)C(F)(F)F)cc(C)c1N(C)C(=O)c1cccc(N(CC(N)=O)C(=O)c2ccccc2)c1 [6-12, 3-(N-(2-amino-2-oxoethyl)benzamide)-N-(2,6-dimethyl-4-(perfluoropropan-2-yl)phenyl)-N-methylbenzamide]",pest or weed control at 100 ppm,Plutella xylostella,≥ 70%
same,pest or weed control at 100 ppm,Spodoptera litura,≥ 70%
"COC(=O)CCCN(C(=O)c1ccccc1)c1cccc(C(=O)N(C)c2c(C)cc(C(F)(C(F)(F)F)C(F)(F)F)cc2C)c1 [6-13, methyl 4-(N-(3-((2,6-dimethyl-4-(perfluoropropan-2-yl)phenyl)(methyl)carbamoyl)phenyl)benzamide)butanoate]",pest or weed control at 100 ppm,Plutella xylostella,≥ 70%
"Cc1cc(C(F)(C(F)(F)F)C(F)(F)F)cc(C)c1N(C)C(=O)c1cccc(N(CCCC(N)=O)C(=O)c2ccccc2)c1 [6-15, 3-(N-(4-amino-4-oxobutyl)benzamide)-N-(2,6-dimethyl-4-(perfluoropropan-2-yl)phenyl)-N-methylbenzamide]",pest or weed control at 100 ppm,Plutella xylostella,≥ 70%
same,pest or weed control at 100 ppm,Spodoptera litura,≥ 70%
"Cc1cc(C(F)(C(F)(F)F)C(F)(F)F)cc(C)c1NC(=O)c1cccc(N(CCCN/C(N)=N/[N+](=O)[O-])C(=O)c2ccccc2)c1 [6-61, N-(3-(2,6-dimethyl-4-(perfluoropropan-2-yl)phenylcarbamoyl)phenyl)-N-(3-(2-nitroguanidino)propyl)benzamide]",pest or weed control at 100 ppm,Spodoptera litura,≥ 70%
"COC(=O)CCN(C(=O)c1cccc(NC(=O)c2ccccc2)c1)c1c(C)cc(C(F)(C(F)(F)F)C(F)(F)F)cc1C [7-6, methyl 3-(3-benzamide-N-(2,6-dimethyl-4-(perfluoropropan-2-yl)phenyl)benzamide)propanoate]",pest or weed control at 100 ppm,Plutella xylostella,≥ 70%
"Cc1cc(C(F)(C(F)(F)F)C(F)(F)F)cc(C)c1N(CCO)C(=O)c1cccc(N(C)C(=O)c2ccccc2)c1F [7-23, N-(2,6-dimethyl-4-(perfluoropropan-2-yl)phenyl)-2-fluoro-N-(2-hydroxyethyl)-3-(N-methylbenzamide)benzamide]",pest or weed control at 100 ppm,Plutella xylostella,≥ 70%
"CS(=O)(=O)CCN(C(=O)c1cccc(NC(=O)c2ccccc2)c1F)c1c(Br)cc(C(F)(C(F)(F)F)C(F)(F)F)cc1Br [7-169, 3-benzamide-N-(2,6-dibromo-4-(perfluoropropan-2-yl)phenyl)-2-fluoro-N-(2-(methylsulfonyl)ethyl)benzamide]",pest or weed control at 100 ppm,Plutella xylostella,≥ 70%
"Cc1cc(C(F)(C(F)(F)F)C(F)(F)F)cc(C)c1N(CC(=O)O)C(=O)c1cccc(N(CC(=O)O)C(=O)c2ccccc2)c1F [8-13, 2-(N-(3((carboxymethyl)(2,6-dimethyl-4-(perfluoropropan-2-yl)phenyl)carbamoyl)-2-fluorophenyl)benzamide)acetic acid]",pest or weed control at 100 ppm,Plutella xylostella,≥ 70%

# — US9084420B2, “Amide derivative, pest control agent containing the amide derivative, and pest controlling method” (Mitsui Chemicals Agro, Inc., priority 2008, dated 2015)
